PMC11450061 (Clinical Pharmacokinetics, 2024)
Where two headings read alike, the source gives them in different places.

Assays:
[1] = test system: BCR::ABL1^IS in patients with CML-CP treated with two or more prior TKIs; conditions: asciminib 40 mg b.i.d. vs bosutinib 500 mg q.d.; cited from earlier work
[2] = asciminib 40 mg b.i.d. vs bosutinib 500 mg q.d.; cited from earlier work
[3] = Population pharmacokinetics; parameters: species or system human
Exposure-response safety = assay type: in vivo, human; conditions: for predicted probability of AST increase grade ≥ 2 event within a cycle: ASCEMBL study
[4] = TEAEs leading to dose reduction/interruption, time-dependent Cox regression; assay type: in vivo, human; conditions: 152 of 351 patients; pooled dose-finding and ASCEMBL
[5] = Concentration-QTcF analysis; assay type: in vivo, human
[6] = cited from earlier work
[7] = cited from earlier work; remark: listed apart in the source
[8] = test system: BCR::ABL1^IS levels in patients with CML-CP without the T315I mutation; experiment: Exposure-response efficacy; conditions: Cmin model

| Cmin lower for 80 mg q.d. compared with 40 mg b.i.d. [3] | increase in Cmax with 80 mg q.d. compared with 40 mg b.i.d. ([3]; based on PopPK) | Compound | proportion of patients achieving MMR (BCR::ABL1^IS ≤ 0.1%) at 96 weeks [1] | AEs leading to treatment discontinuation [2] | grade ≥ 3 adverse events [2] | predicted probability of AST increase grade ≥ 2 event within a cycle (Exposure-response safety; 5-fold increase in geometric mean Cmax of 40 mg b.i.d.) | predicted probability of AST increase grade ≥ 2 event within a cycle (Exposure-response safety; geometric mean Cmax of 40 mg b.i.d.) | relationship between asciminib exposure and the majority of the laboratory events analyzed (Exposure-response safety; repeated measures logistic regression) | patients with TEAEs leading to dose reduction or dose interruption [4] | estimated mean QTcF change from baseline ([5]; at Cmax of 40 mg b.i.d.) | estimated mean QTcF change from baseline ([5]; at Cmax of 80 mg q.d.) | estimated mean QTcF change from baseline ([5]; at Cmax of 200 mg b.i.d.) | estimated mean QTcF change from baseline ([5]; at the HCRE (highest clinically relevant exposure)) | increase in Cmax of asciminib when taken in combination with imatinib [6] | decrease in exposure compared with the fasted state ([7]; high-fat meal) | decrease in exposure compared with the fasted state ([7]; low-fat meal) | decrease in drug effect with a Cmin lower by 30% [8] | Effmag (population mean, RSE) ([8]; patients without T315I) |
| --- | --- | --- | --- | --- | --- | --- | --- | --- | --- | --- | --- | --- | --- | --- | --- | --- | --- | --- |
|  |  | COc1cc(Nc2c(C#N)cnc3cc(OCCCN4CCN(C)CC4)c(OC)cc23)c(Cl)cc1Cl [bosutinib] | 15.8% | 26.3% | 68.4% |  |  |  |  |  |  |  |  |  |  |  |  |  |
| about 30% | 60% | O=C(Nc1ccc(OC(F)(F)Cl)cc1)c1cnc(N2CC[C@@H](O)C2)c(-c2ccn[nH]2)c1 [asciminib] | 37.6% | 7.7% | 56.4% | 0.4% | 0.1% | no statistically significant relationship | 43.3% | 3.35 (90% CI 2.28–4.43) ms | 3.64 (90% CI 2.60–4.68) ms | 5.37 (90% CI 3.97–6.77) ms | 6.77 (90% CI 4.67–8.87) ms | 1.59 fold | approximately 65% | approximately 30% | < 2% | 42.1 (3.4%) |
